Assay results taken from article PMC12209172, “Poly(ADP-ribose)polymerase 2 is zinc-dependent enzyme and nucleosome reorganizer” (Cellular and Molecular Life Sciences: CMLS, 2025).

Columns and labels:
[1] = target: T1, WGR domain-nucleosome complexes (Homo sapiens, UniProt Q9UGN5); test: spFRET microscopy of WGR domain-nucleosome complexes; conditions: Np nucleosomes, WGR domain plus 2 mM Zn2+
T1 construct: WGR domain of PARP2 (residues 77–220) into pET-15b-TEV expression vector; 6xHis (pET-15b-TEV) (N, cleaved yes); made in house; host or cells: Escherichia coli Rosetta2 (DE3) pLysS (WGR)
Procedure: In the study of nucleosome-PARP2 interactions, nucleosomes (1–2 nM) were incubated with PARP2 (12.5–200 nM) in buffer A (50 mM Tris-HCl pH 7.5; 40 mM NaCl; 0.5 mM β-mercaptoethanol (β-ME); 0.1% NP40) at 25 °C for 30 min. When indicated, buffer A was supplemented with 50 µM – 5 mM ZnCl2, 5 mM CaCl2 or 5 mM MgCl2. To study the stability of Zn^2+-PARP2-nucleosome complexes, PARP2-nucleosome complexes that have been formed for 30 min in buffer A containing 50 nM PARP2 and 0.15 mM Zn^2+ ions were mixed with EDTA (10 mM) and incubated for 15 min. In the studies of PARylation, NAD+ (0.5–10 µM) was mixed with nucleosomes (1–2 nM) and PARP2 (100 nM) in buffer A and incubated for 45 min at 25 °C.
spFRET measurements in solution were performed as described previously. Each measured single nucleosome was characterized by FRET between Cy3 and Cy5 labels calculated as a proximity ratio (EPR):1 [drawing 1]
Where I3 and I5 are fluorescence intensities of Cy3 and Cy5, respectively, and coefficients 0.19 and 0.81 provide correction for the spectral cross-talk between Cy3 and Cy5 detection channels. […] Relative frequency distributions of nucleosomes by EPR values, i.e. EPR profiles, (2000–5000 nucleosomes per experiment; 3 independent experiments) were plotted and further analyzed as a superposition of several normal (Gaussian) distributions for nucleosomes or nucleosome-PARP2 complexes. […]

PARP2 [2] = target: T2, PARP2 (Mus musculus, UniProt O88554); test: Tryptophan fluorescence spectroscopy of PARP2 with Zn2+; format: binding; set-up: Recombinant mouse full-length PARP2 was obtained in the baculovirus expression system; made in house; host or cells: Sf9 insect cells (baculovirus); gift of Prof; O. Lavrik; conditions: PARP2 0.5 µM, Zn2+ 377 µM
Procedure: Fluorescence spectra of Trp residues were measured in the 300–450 nm spectral range at the 270 nm excitation wavelengths using the Cary Eclipse spectrofluorometer (Varian/Agilent, USA).
Fluorescence of PARP2 was measured at 0.5 µM in a buffer containing 7% glycerin, 33 µM HEPES (pH 8.0), 75 mM NaCl, 89 µM EDTA, 27 µM ZnCl2, 1.5 µM TCEP. A solution of PARP2 was complemented with ZnCl2 to 377 µM.

PARP2 [3] = target: T2, PARP2; test: Western blot analysis of NAD+-dependent PARylation by PARP2 in PARP2-nucleosome complexes; format: biochemical; set-up: Recombinant mouse full-length PARP2 was obtained in the baculovirus expression system; made in house; host or cells: PARP2: Sf9 insect cells (baculovirus), gift of Prof; O. Lavrik; nucleosomes assembled in house; conditions: Mg2+ 5 mM or Zn2+ 0.3 mM; PARP2 100 nM, nucleosomes 3 nM, NAD+ 0-5 µM
Procedure: Probes were subjected to electrophoresis in 4–12% bis-Tris gradient gel in the NuPAGE™ MES SDS Running Buffer at 130 V. […] The membrane was incubated for 60 min in the PBS-T solution supplemented with the 5% skimmed milk. Then the membrane was incubated with mouse monoclonal antibodies 10 H followed by incubation with the secondary anti-mouse antibodies conjugated with horseradish peroxidase (Bio-Rad, Hercules, CA, USA). The washing procedure was carried out after each step of incubation. Immunodetection was performed using the Super Signal West Pico Chemiluminescent Substrate (Thermo Fisher Scientific, Waltham, MA, USA) for 3 min. The Western blot experiments were performed in three independent repetitions.

PARP2 [4] = target: T2, PARP2; test: Circular dichroism spectroscopy of PARP2 (BeStSel secondary structure analysis); set-up: Recombinant mouse full-length PARP2 was obtained in the baculovirus expression system; made in house; host or cells: Sf9 insect cells (baculovirus); gift of Prof; O. Lavrik; conditions: 0.3 mM Zn2+, 0.7 mM Ca2+ or 0.7 mM Mg2+
Procedure: CD spectra of proteins were recorded within the 190-250 nm spectral range with 0.2 nm step using Jasco-810 spectrophotometer (Jasco, Japan) and the quartz […]® cuvette of 0.1 mm thickness (Hellma, Germany. Secondary structure analysis was performed using BeStSel webserver. To improve the reliability of the analysis, the content of canonical secondary structures of various types was predicted for 3-6 independent measurements, and the values were averaged. The statistical significance of the secondary structure difference was determined using the multiple t-test.

## [Cl-].[Cl-].[Zn+2] [Zn2+, ZnCl2]
[1]
  EPR maximum of the new peak in the EPR profile: 0.4
PARP2 [2]
  intensity of fluorescence spectrum of tryptophan residues of PARP2 after addition of ions: increased
PARP2 [3]
  effect of ions on efficiency of PARP2-mediated PARylation: decrease
PARP2 [4]
  effect of ions on the CD spectrum / conformation of PARP2: small conformational changes
